Experimental data reported in patent US5723461A, “Quinoxalines, a process for their preparation and their use” (Hoechst Aktiengesellschaft, priority 1994, dated 1998).
Converted amounts (≈) assume the structure as drawn.

Legend:
[1] = molecular target: T1, HIV reverse transcriptase (Human immunodeficiency virus type 1 group M subtype B, UniProt P04585); assay: Inhibition of HIV reverse transcriptase (scintillation proximity assay); type: biochemical; settings: Reverse transcriptase assay (SPA), 60 min, 37° C.
T1 construct: purchased HT Biotechnology Ltd., Cambridge, UK; host or cells: E. coli
Protocol: Examination of the substances for their ability to inhibit HIV reverse transcriptase
The activity of the reverse transcriptase (RT) was determined using a scintillation proximity assay (SPA).
The reagent kit for the RT SPA was obtained from Amersham/Buchler (Braunschweig). The RT enzyme (derived from HIV and cloned in E. coli) was obtained from HT Biotechnology Ltd., Cambridge, UK.
The test was carried out in accordance with the manufacturer's (Amersham) methods manual, with the following modifications:
Bovine serum albumin was added to the assay buffer to a final concentration of 0.5 mg/ml.
The test was carried out in Eppendorf tubes using an assay mixture volume of 100 μl.
The manufacturer's RT concentrate (5000 U/ml) was diluted to an activity of 15 U per ml using 20 mM tris-HCl buffer, pH 7.2, 30% glycerol.
The assay mixtures were incubated for 60 min (37° C.).
After the reaction had been stopped and "developed" with the bead suspension, 130 μl of assay mixture were transferred into 4.5 ml of 10 mM tris-HCl buffer, pH 7.4, 0.15M NaCl and the tritium activity was measured in a β-counter.
In order to carry out a preliminary test of their inhibitory activity, the substances were dissolved in DMSO (stock solution, c=1 mg/ml) and tested when diluted 10^-1, 10^-2, 10^-3 etc. in DMSO.
In order to determine IC50 values, the stock solutions of inhibitor were further diluted in 50 mM tris-HCl buffer, pH 8, and tested at suitable concentrations.
The concentration associated with 50% inhibition of the enzyme was ascertained from the plot of RT activity against log Cinh.

HIV = assay: Testing of preparations against HIV in cell culture (T-cell culture assay); type: cell-based; settings: Human immunodeficiency virus 1, 72 h, HIV-infected lymphocytes, 3 days at 37° C., lowest concentration at which no giant cells occurred, read-out: MIC EC50
Protocol: Testing of preparations against HIV in cell culture
Description of the method:
Complete medium additionally contains 20% fetal calf serum and 40 IU/ml recombinant interleukin 2.
Lymphocytes, which have been isolated from fresh donor blood by means of Ficoll® gradient centrifugation, are cultured, for 36 hours at 37° C. and under 5% CO2, in complete medium which additionally contains […] phytohemagglutinin (Wellcome). After 10% DMSO has been added, the cells are frozen at a cell density of 5×10^6 and stored in liquid nitrogen. For the experiment, the cells are thawed, washed in the RPMI medium and cultured for 3 to 4 days in the complete medium.
The test preparations were dissolved in DMSO at a concentration of 16.7 mg/ml, and these solutions were diluted with complete medium to a concentration of 1 mg/ml. 0.4 ml of medium was initially introduced into 24-well multiwell plates. After 0.1 ml of the dissolved preparation had been added to the upper row of the plate, a geometric dilution series was produced by transferring 0.1 ml on each occasion. Preparation-free controls contained 0.4 ml of complete medium containing 0.5% DMSO.
Lymphocyte cultures having a cell count of 5×10^5 cells/ml were infected by adding a 1/50 volume of the supernatant from HIV-infected lymphocyte cultures. The titer of these culture supernatants was determined by end-point dilution to be 1-5×10^6 infectious units/ml. After having been incubated at 37° C. for 30 min, the infected lymphocytes were centrifuged off and taken up once again in the same volume of medium. 0.6 ml of this cell suspension was added to each of the wells in the test plate. The assay mixtures were incubated at 37° C. for 3 days.
The infected cell cultures were examined under the microscope for the presence of giant cells, which are indicative of active viral replication in the culture. The lowest preparation concentration at which no giant cells occurred was determined and taken to be the inhibitory concentration against HIV. As a control, the supernatants from the culture plates were assayed for the presence of HIV antigen using an HIV antigen test in accordance with the manufacturer's (Organon) instructions.

SMILES	IC50 [1] [nM]	EC50 (HIV) [ng/mL]
COc1ccc2c(c1)N(C(=O)OC(C)C)[C@@H](CSC)C(=O)N2 [Example 29, S-4-Isopropoxycarbonyl-6-methoxy-3-(methylthiomethyl)-3,4-dihydroquinoxalin-2(1H)-one]	30.8 to 308	< 8
CC[C@H]1C(=O)Nc2ccccc2N1C(=O)OC(C)C [Example 30]		< 40
CCC[C@H]1C(=O)Nc2ccccc2N1C(=O)OC(C)C [Example 31]		50 (≈ 0.181 µM)
CSC[C@H]1C(=O)Nc2ccccc2N1C(=O)OC(C)C [Example 34]	34 to 340	< 1
CC[C@H]1C(=O)Nc2ccc(Cl)cc2N1C(=O)OC(C)C [Example 35]	33.7	< 80
CSC[C@H]1C(=O)Nc2ccc(Cl)cc2N1C(=O)OC(C)C [Example 38]	15.2	< 1
CC[C@H]1C(=O)Nc2ccc(F)cc2N1C(=O)OC(C)C [Example 39]	71.4	8 (≈ 0.0285 µM)
CCC[C@H]1C(=O)Nc2ccc(F)cc2N1C(=O)OC(C)C [Example 40]	34 to 340	80 (≈ 0.272 µM)
CSC[C@H]1C(=O)Nc2ccc(F)cc2N1C(=O)OC(C)C [Example 42]		< 8
CC[C@H]1C(=O)Nc2ccc(OC)cc2N1C(=O)OC(C)C [Example 43]		< 1
CCC[C@H]1C(=O)Nc2ccc(OC)cc2N1C(=O)OC(C)C [Example 44]		< 80
CCOc1ccc2c(c1)N(C(=O)OC(C)C)[C@@H](CSC)C(=O)N2 [Example 52]	29.5 to 295	< 8
CCCOc1ccc2c(c1)N(C(=O)OC(C)C)[C@@H](CSC)C(=O)N2 [Example 54]		40 (≈ 0.113 µM)
C=C(C)OC(=O)N1c2cc(Cl)ccc2NC(=O)[C@@H]1CC [Example 57]	33.9 to 339	1 (≈ 0.00339 µM)
C=CCOC(=O)N1c2cc(Cl)ccc2NC(=O)[C@@H]1CC [Example 58]	33.9 to 339	10 (≈ 0.0339 µM)
C=C(C)OC(=O)N1c2cc(Cl)ccc2NC(=O)[C@@H]1CSC [Example 59]	55.1	20 (≈ 0.0612 µM)
CCCOC(=O)N1c2cc(Cl)ccc2NC(=O)[C@@H]1CSC [Example 60]	30.4	40 (≈ 0.122 µM)
CCOC(=O)N1c2cc(Cl)ccc2NC(=O)[C@@H]1CSC [Example 61]	31.8 to 318	2 (≈ 0.00635 µM)
C=C(C)OC(=O)N1c2cc(F)ccc2NC(=O)[C@@H]1CC [Example 62]	331	80 (≈ 0.287 µM)
C=C(C)OC(=O)N1c2cc(OC)ccc2NC(=O)[C@@H]1CSC [Example 68]	49.6	8 (≈ 0.0248 µM)

SMILES	IC50 [1] [nM]	EC50 (HIV) [ng/mL]
CCOC(=O)N1c2cc(F)ccc2NC(=O)[C@@H]1CC [Example 78]	300	< 80
CCC(C)OC(=O)N1c2cc(OC)ccc2NC(=O)[C@@H]1CSC (some centres unmarked) [Example 84g]	349	
CC(C)OC(=O)N1c2cc(F)ccc2NC(=O)[C@@H]1C [Example 84i]	638	80 (≈ 0.3 µM)
CCC(C)OC(=O)N1c2cc(F)ccc2NC(=O)[C@@H]1CC (some centres unmarked) [Example 84j]	296	< 80
CCCCOC(=O)N1c2cc(F)ccc2NC(=O)[C@@H]1CC [Example 84l]	510	80 (≈ 0.272 µM)
COC[C@H]1C(=O)Nc2ccc(F)cc2N1C(=O)OC(C)C [Example 84o]		80 (≈ 0.27 µM)
COc1ccc2c(c1)N(C(=O)OC(C)C)[C@@H](CSC)C(=S)N2 [Example 85, S-4-Isopropoxycarbonyl-6-methoxy-3-(methylthiomethyl)-3,4-dihydroquinoxalin-2(1H)-thione]	23.5	2 (≈ 0.00587 µM)
CC[C@H]1C(=S)Nc2ccccc2N1C(=O)OC(C)C [Example 86]	39.5	1 (≈ 0.00359 µM)
CCC[C@H]1C(=S)Nc2ccccc2N1C(=O)OC(C)C [Example 87]	92.3	4 (≈ 0.0137 µM)
CCCC[C@H]1C(=S)Nc2ccccc2N1C(=O)OC(C)C [Example 88]		< 40
CSC[C@H]1C(=S)Nc2ccccc2N1C(=O)OC(C)C [Example 90]	16.1	< 8
CC[C@H]1C(=S)Nc2ccc(Cl)cc2N1C(=O)OC(C)C [Example 91]	12.8	2 (≈ 0.00639 µM)
CSC[C@H]1C(=S)Nc2ccc(Cl)cc2N1C(=O)OC(C)C [Example 94]	43.5	< 8
CC[C@H]1C(=S)Nc2ccc(F)cc2N1C(=O)OC(C)C [Example 95]		2 (≈ 0.00675 µM)
CCC[C@H]1C(=S)Nc2ccc(F)cc2N1C(=O)OC(C)C [Example 96]	51.5	80 (≈ 0.258 µM)
CSC[C@H]1C(=S)Nc2ccc(F)cc2N1C(=O)OC(C)C [Example 98]	36.5	3 (≈ 0.00913 µM)
CC[C@H]1C(=S)Nc2ccc(OC)cc2N1C(=O)OC(C)C [Example 99]	35.7	< 1
CCC[C@H]1C(=S)Nc2ccc(OC)cc2N1C(=O)OC(C)C [Example 100]	49.6	4 (≈ 0.0124 µM)
COC[C@H]1C(=S)Nc2ccc(OC)cc2N1C(=O)OC(C)C [Example 104]	108	8 (≈ 0.0247 µM)
CCOc1ccc2c(c1)N(C(=O)OC(C)C)[C@@H](CSC)C(=S)N2 [Example 108]	22.6	< 5

SMILES	IC50 [1] [nM]	EC50 (HIV) [ng/mL]
CCCOc1ccc2c(c1)N(C(=O)OC(C)C)[C@@H](CSC)C(=S)N2 [Example 110]	27.1 to 271	4 (≈ 0.0109 µM)
C=C(C)OC(=O)N1c2cc(Cl)ccc2NC(=S)[C@@H]1CC [Example 113]	19.3	0.8 (≈ 0.00257 µM)
C=CCOC(=O)N1c2cc(Cl)ccc2NC(=S)[C@@H]1CC [Example 114]	22.5	1.6 (≈ 0.00515 µM)
C=C(C)OC(=O)N1c2cc(Cl)ccc2NC(=S)[C@@H]1CSC [Example 115]	29.2	1.6 (≈ 0.00467 µM)
C=C(C)OC(=O)N1c2cc(OC)ccc2NC(=S)[C@@H]1CSC [Example 124]		< 8
CCC(C)COC(=O)N1c2cc(OC)ccc2NC(=S)[C@@H]1CSC (some centres unmarked) [Example 125]	40.7	
CCOC(=O)N1c2cc(F)ccc2NC(=S)[C@@H]1CC [Example 134]	10.6	8 (≈ 0.0283 µM)
CSC[C@H]1C(=S)Nc2ccc(O)cc2N1C(=O)OC(C)C [Example 140a]	285	40 (≈ 0.123 µM)
CC[C@H]1C(=S)Nc2ccc(O)cc2N1C(=O)OC(C)C [Example 140b]	238	< 80
C=CCOC(=O)N1c2cc(Cl)ccc2NC(=S)[C@@H]1C [Example 140c]	371	40 (≈ 0.135 µM)
C=C(C)OC(=O)N1c2cc(Cl)ccc2NC(=S)[C@@H]1C [Example 140d]	91	10 (≈ 0.0337 µM)
CCC(C)OC(=O)N1c2cc(OC)ccc2NC(=S)[C@@H]1CSC (some centres unmarked) [Example 140f]	53.6	8 (≈ 0.0226 µM)
COc1ccc2c(c1)N(C(=O)OCC(C)C)[C@@H](CSC)C(=S)N2 [Example 140g]	48	40 (≈ 0.113 µM)
CC[C@H]1C(=S)Nc2ccc(F)cc2N1C(=O)OC [Example 140h]	29.8	10 (≈ 0.0373 µM)
CCCCOC(=O)N1c2cc(F)ccc2NC(=S)[C@@H]1CC [Example 140i]	70.9	10 (≈ 0.0322 µM)
CC[C@H]1C(=S)Nc2ccc(F)cc2N1C(=O)OCC(C)C [Example 140j]	48.3	10 (≈ 0.0322 µM)
CCC(C)OC(=O)N1c2cc(F)ccc2NC(=S)[C@@H]1CC (some centres unmarked) [Example 140k]	51.5	8 (≈ 0.0258 µM)
COC[C@H]1C(=S)Nc2ccc(F)cc2N1C(=O)OC(C)C [Example 140l]	70.4	8 (≈ 0.0256 µM)
